One test concerns the target T1, galectin-4 (Homo sapiens, UniProt P56470).
T1 construct: gene LGALS4; full-length, His-tagged (pQE-9), E. coli M15[pREP4], TALON purified; two CRDs (N-CRD and C-CRD), approx. 36 kDa; amine-coupled on CM5 chip for SPR
T1 sequence (P56470 1-323): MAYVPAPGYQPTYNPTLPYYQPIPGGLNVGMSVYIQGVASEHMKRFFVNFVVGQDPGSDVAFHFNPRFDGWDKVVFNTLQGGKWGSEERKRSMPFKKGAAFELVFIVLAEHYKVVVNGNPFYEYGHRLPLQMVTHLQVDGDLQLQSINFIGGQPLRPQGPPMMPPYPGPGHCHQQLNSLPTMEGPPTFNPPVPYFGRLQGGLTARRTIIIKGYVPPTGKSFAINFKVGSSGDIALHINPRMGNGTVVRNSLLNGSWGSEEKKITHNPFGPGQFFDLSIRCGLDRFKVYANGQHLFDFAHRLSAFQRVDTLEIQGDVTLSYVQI
As to the kind of experiment: SPR (Biacore X100, galectin-4 immobilised on CM5), multi cycle. The note with it: 25 °C, HBS-EP pH 7.4; LNT 31.3–500 μM; read-out: equilibrium binding constant.

The test system of the next test is MKN45. As to the kind of experiment: cells. Further details: ATP-based cell viability assay, growth inhibition of MKN45 in FCS-free medium, 3 days. The conditions noted are these: Homo sapiens, MKN-45, 72 h; read-out: Growth inhibition (IC50) MKN45. As to the method:
For growth inhibition experiments, MKN45 or NUGC4 cells were grown in 96-well plates at 5 × 10^3/well on the previous day, and the cell supernatant was discarded and washed once with phosphate-buffered saline (PBS). Fucoidan or fucoidan analog solutions diluted in FCS-free Advanced RPMI 1640 medium were added to the cells and cultured for another 3 days. Cell proliferation was measured using the ATP-based cell viability assay. We first measured the inhibitory activities of all synthesized fucoidan analogs 1–14 to narrow down the candidate. […] Next, the inhibitory activity of fucoidan analogs on the proliferation of MKN45 cells was measured (Figure 3A). […] From the viewpoint of growth and binding inhibitory activities, we narrowed it down to 2, 3, 10, 12, and 14 for further investigation.

In a further test the test system is NUGC4 WT. As to the kind of experiment: cells. Further details: ATP-based cell viability assay, growth inhibition of wild-type NUGC4 in FCS-free medium, 3 days. The note with it: Homo sapiens, NUGC-4, 72 h; read-out: Growth inhibition (IC50) NUGC4 WT. As for the experimental part: For growth inhibition experiments, MKN45 or NUGC4 cells were grown in 96-well plates at 5 × 10^3/well on the previous day, and the cell supernatant was discarded and washed once with phosphate-buffered saline (PBS). Fucoidan or fucoidan analog solutions diluted in FCS-free Advanced RPMI 1640 medium were added to the cells and cultured for another 3 days. Cell proliferation was measured using the ATP-based cell viability assay. Fucoidan analogs inhibited the proliferative ability of NUGC4 cells, but minimal inhibitory activity was observed against KO cells (Figure 3B).

Data on six compounds can be found in paper PMC12470716, “Inhibitory Effect of Fucoidan Analogs on Highly Metastatic Gastric Cancer Cells via Galectin-4 Inhibition” (International Journal of Molecular Sciences, 2025).

For `CC(=O)N[C@H]1[C@H](O[C@H]2[C@@H](O)[C@@H](CO)O[C@@H](O[C@H]3[C@H](O)[C@@H](O)C(O)O[C@@H]3CO)[C@@H]2O)O[C@H](CO)[C@@H](O)[C@@H]1O[C@@H]1O[C@H](CO)[C@H](O)[C@H](O)[C@H]1O` (some centres unmarked) [LNT], at galectin-4, the Kd amounted to 200 µM.

Take `CCCCCCCCOC1O[C@@H](C)[C@@H](O)[C@@H](O[C@@H]2O[C@@H](C)[C@@H](O)[C@@H](O[C@@H]3O[C@@H](C)[C@@H](O)[C@@H](O[C@@H]4O[C@@H](C)[C@@H](O)[C@@H](OS(=O)(=O)O)[C@@H]4OS(=O)(=O)O)[C@@H]3OS(=O)(=O)O)[C@@H]2OS(=O)(=O)O)[C@@H]1OS(=O)(=O)O` (some centres unmarked) [compound 3, fucoidan analog 3]: the values for the IC50 with MKN45 and with NUGC4 WT were greater than 100 µM and greater than 50 µM, respectively. In the case of `CCCCCCCCOC1OC(C)C(O)C(OC2OC(C)C(O)C(OC3OC(C)C(O)C(OC4OC(C)C(O)C(O)C4O)C3O)C2O)C1O` (centres unmarked) [compound 4, 4], the IC50 in the test with MKN45 was greater than 100 µM. On to `CCCCCCCCO[C@H]1O[C@@H](C)[C@@H](O[C@@H]2O[C@@H](C)[C@@H](O[C@@H]3O[C@@H](C)[C@@H](O[C@@H]4O[C@@H](C)[C@@H](OS(=O)(=O)O)[C@@H](OS(=O)(=O)O)[C@@H]4OS(=O)(=O)O)[C@@H](OS(=O)(=O)O)[C@@H]3OS(=O)(=O)O)[C@@H](OS(=O)(=O)O)[C@@H]2OS(=O)(=O)O)[C@@H](OS(=O)(=O)O)[C@@H]1OS(=O)(=O)O` [compound 10, fucoidan analog 10], for which the half-inhibitory concentration (IC50) in the test with NUGC4 WT was less than 50 µM. With `CCCCCCCCO[C@H]1O[C@@H](C)[C@@H](O[C@@H]2O[C@@H](C)[C@@H](O[C@@H]3O[C@@H](C)[C@@H](O[C@@H]4O[C@@H](C)[C@@H](O)[C@@H](O)[C@@H]4OS(=O)(=O)O)[C@@H](O)[C@@H]3OS(=O)(=O)O)[C@@H](O)[C@@H]2OS(=O)(=O)O)[C@@H](O)[C@@H]1OS(=O)(=O)O` [compound 12, fucoidan analog 12], the 50% inhibitory concentration (IC50) is greater than 100 µM with MKN45 and greater than 50 µM with NUGC4 WT.

`CCCCCCCCOC1OC(C)C(OC2OC(C)C(OC3OC(C)C(OC4OC(C)C(O)C(O)C4O)C(O)C3O)C(O)C2O)C(O)C1O` (centres unmarked) [compound 13, 13]: in the test on MKN45, the IC50 was greater than 100 µM.
